This is an account of results in patent US11298363B2, “Triazolobenzazepines as vasopressin V1a receptor antagonists” (RICHTER GEDEON NYRT., priority 2017, dated 2022).

The target in assay [1] is T1, human vasopressin V1a receptor (Homo sapiens, UniProt P37288). Briefly: Functional assay on human vasopressin V1a receptor expressing cell line (intracellular Ca2+ fluorescence). The class given is cell-based. To be noted: 1321N1 cells, (Arg8)-vasopressin at EC80; read-out: IC50 (nM) on hV1a cell line.
Assay [2] addresses T1, human vasopressin V1a receptor. Briefly: Human vasopressin V1a receptor binding assay. To be noted: 1321N1 cell membranes, [3H]vasopressin; read-out: Ki (nM) on hV1a cell line. A digest of the protocol: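 Radioligand competition on membranes from cells expressing human V1a receptor; incubation 60 minutes at 27° C., non-specific binding with 1.2×10^−6 M unlabeled (Arg^8)-vasopressin, filtration separation. Ki by Cheng-Prusoff using Scatchard-derived KD, from at least two independent experiments.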

T1 sequence (P37288 whole entry): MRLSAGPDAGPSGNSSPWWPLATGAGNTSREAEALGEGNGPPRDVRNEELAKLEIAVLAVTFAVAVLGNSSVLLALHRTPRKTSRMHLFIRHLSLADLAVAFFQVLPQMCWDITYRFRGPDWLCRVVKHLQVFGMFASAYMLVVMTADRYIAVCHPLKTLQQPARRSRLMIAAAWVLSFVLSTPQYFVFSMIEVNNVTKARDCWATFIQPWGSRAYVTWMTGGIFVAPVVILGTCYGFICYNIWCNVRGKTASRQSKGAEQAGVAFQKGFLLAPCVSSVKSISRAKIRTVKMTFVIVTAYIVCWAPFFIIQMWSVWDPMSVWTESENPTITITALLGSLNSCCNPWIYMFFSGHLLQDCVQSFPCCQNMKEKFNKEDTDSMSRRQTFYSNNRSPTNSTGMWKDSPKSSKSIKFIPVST

As for `CC(C)N1CC[C@]2(CC[C@H](c3nnc4n3-c3ccc(Cl)cc3CC3(C4)OCCO3)CC2)C1=O` [Example 129, (5s,8s)-8-(8′-chloro-4′H,6′H-spiro[1,3-dioxolane-2,5-[1,2,4]triazolo[4,3-a][1]benzazepin]-1′-yl)-2-(propan-2-yl)-2-azaspiro[4.5]decan-1-one], the concentration for half-maximal inhibition (IC50) in assay [1] came out at 20 nM. For the same compound, the Ki in assay [2] was 0.5 nM.
For `COC1Cc2cc(Cl)ccc2-n2c(nnc2[C@H]2CC[C@H](N3CCOCC3)CC2)C1` (stereo partly drawn) [Example 130, 8-chloro-5-methoxy-1-[trans-4-(morpholin-4-yl)cyclohexyl]-5,6-dihydro-4H-[1,2,4]triazolo[4,3-a][1]benzazepine], in that order: 6.1 nM and 2.4 nM.
The matching figures for `CCOC1Cc2cc(Cl)ccc2-n2c(nnc2[C@H]2CC[C@H](Oc3ccccn3)CC2)C1` (stereo partly drawn) [Example 131, 8-chloro-5-ethoxy-1-[trans-4-(pyridin-2-yloxy)cyclohexyl]-5,6-dihydro-4H-[1,2,4]triazolo[4,3-a][1]benzazepine]: 0.7 nM and 0.3 nM.
For `COC1Cc2cc(F)ccc2-n2c(nnc2[C@H]2CC[C@H](Oc3ccccn3)CC2)C1` (stereo partly drawn) [Example 134, 8-fluoro-5-methoxy-1-[trans-4-(pyridin-2-yloxy)cyclohexyl]-5,6-dihydro-4H-[1,2,4]triazolo[4,3-a][1]benzazepine], the half-inhibitory concentration (IC50) in assay [1] was determined as 1.5 nM. Also, in assay [2], the Ki worked out at 0.2 nM.
For `CC(C)NC1Cc2cc(Cl)ccc2-n2c(nnc2C2CCN(c3ccccn3)CC2)C1` (stereo not drawn) [Example 135, 8-chloro-N-(propan-2-yl)-1-[l-(pyridin-2-yl)piperidin-4-yl]-5,6-dihydro-4H-[1,2,4]triazolo[4,3-a][1]benzazepin-5-amine], in that order: 54 nM and 2.9 nM.
With `OCCOC1Cc2cc(Cl)ccc2-n2c(nnc2[C@H]2CC[C@H](Oc3ccccn3)CC2)C1` (stereo partly drawn) [Example 136, 2-({8-chloro-1-[trans-4-(pyridin-2-yloxy)cyclohexyl]-5,6-dihydro-4H-[1,2,4]triazolo[4,3-a][1]benzazepin-5-yl}oxy)ethanol], the 50% inhibitory concentration (IC50) in assay [1] was found to be 1.6 nM. In addition, the Ki in assay [2] was 0.2 nM.
For `CCN(CC)[C@H]1Cc2cc(Cl)ccc2-n2c(nnc2[C@H]2CC[C@H](Oc3ccccn3)CC2)C1` [Example 137, (5S)-8-chloro-N,N-diethyl-1-[trans-4-(pyridin-2-yloxy)cyclohexyl]-5,6-dihydro-4H-[1,2,4]triazolo[4,3-a][1]benzazepin-5-amine], in that order: 9.2 nM and 0.7 nM.
The matching figures for `CC(C)N(C)C1Cc2cc(Cl)ccc2-n2c(nnc2[C@H]2CC[C@H](Oc3ccccn3)CC2)C1` (stereo partly drawn) [Example 138, 8-chloro-N-methyl-N-(propan-2-yl)-1-[trans-4-(pyridin-2-yloxy)cyclohexyl]-5,6-dihydro-4H-[1,2,4]triazolo[4,3-a][1]benzazepin-5-amine]: 5 nM and 0.2 nM.
Regarding `CC(C)(C)OC(=O)NC1Cc2cc(Cl)ccc2-n2c(nnc2N2CCN(c3ncccc3Cl)CC2)C1` (stereo not shown) [Example 139, Tert-butyl {8-chloro-1-[4-(3-chloropyridin-2-yl)piperazin-1-yl]-5,6-dihydro-4H-[1,2,4]triazolo[4,3-a][1]benzazepin-5-yl}carbamate], in assay [1], the 50% inhibitory concentration (IC50) was 130 nM. Besides, in assay [2], the Ki amounted to 9.3 nM.
Regarding `COC1Cc2cc(Cl)ccc2-n2c(nnc2C2CCN(C(=O)OC(C)(C)C)CC2)C1` (stereo not shown) [Example 140, Tert-butyl 4-(8-chloro-5-methoxy-5,6-dihydro-4H-[1,2,4]triazolo[4,3-a][1]benzazepin-1-yl)piperidine-1-carboxylate], the IC50 in assay [1] is 57 nM. For the same compound, in assay [2], the inhibition constant Ki came out at 2.4 nM.
`CC(C)[C@@H](N)C(=O)N[C@@H]1Cc2cc(Cl)ccc2-n2c(nnc2[C@H]2CC[C@H](Oc3ccccn3)CC2)C1` [Example 141, N-{(5R)-8-chloro-1-[trans-4-(pyridin-2-yloxy)cyclohexyl]-5,6-dihydro-4H-[1,2,4]triazolo[4,3-a][1]benzazepin-5-yl}-D-valinamide]: the IC50 in assay [1] is 8.9 nM. Also, the Ki in assay [2] is 0.7 nM.

The IC50 is the concentration at which inhibition is half-maximal. Broadly, the Ki is the equilibrium dissociation constant of an inhibitor or competing ligand from its target.
